Assay results: ChEMBL document CHEMBL4732190, “Identification of Potent and Long-Acting Single-Chain Peptide Mimetics of Human Relaxin-2 for Cardiovascular Diseases” (J Med Chem, 2021)
In brackets after ≈: the same amount, converted by molar mass. *1 amine or outer side, *2 acyl side, *3 side chain or, on linkers, in order; H or OH if unused. Where a SMILES comes first, the peptide text is derived from it. [ ]: non-standard residue; d: D form. The star is where a group is joined. PEG11 = NCCOCCOCCOCCOCCOCCOCCOCCOCCOCCOCCOCCC(=O)O; X3 = CCCCCCCCCCCCCCCCCCC(=O)[C@H](CCC(N)=O)N*; X6 = CCCCCCCCCCCCCCCCCCC(=O)[C@H](CCC(=O)O)N*; β2hAla(2S) = C[C@@H](CN[*:1])C(=O)[*:2]; hLys = NCCCCC[C@H](N)C(=O)O; Nle = CCCC[C@H](N)C(=O)O; AEEA = NCCOCCOCC(=O)O

Key:
[1] = Stability in human plasma assessed as parent compound remaining level at 5 uM remaining after 4 hrs; type: ADME, cell-free; conditions: read-out: Stabilty
[2] = biological target: T1, Relaxin receptor 1 (Homo sapiens, UniProt Q9HBX9); assay: Agonist activity at RXFP1 endogenously expressed in human OVCAR-5 cells assessed as increase in IBMX-induced cAMP accumulation pretreated with IBMX for 40 mins followed by compound addition and measured after 30 mins by HTRF assay; type: functional, cell-based
T1 sequence (Q9HBX9 whole entry): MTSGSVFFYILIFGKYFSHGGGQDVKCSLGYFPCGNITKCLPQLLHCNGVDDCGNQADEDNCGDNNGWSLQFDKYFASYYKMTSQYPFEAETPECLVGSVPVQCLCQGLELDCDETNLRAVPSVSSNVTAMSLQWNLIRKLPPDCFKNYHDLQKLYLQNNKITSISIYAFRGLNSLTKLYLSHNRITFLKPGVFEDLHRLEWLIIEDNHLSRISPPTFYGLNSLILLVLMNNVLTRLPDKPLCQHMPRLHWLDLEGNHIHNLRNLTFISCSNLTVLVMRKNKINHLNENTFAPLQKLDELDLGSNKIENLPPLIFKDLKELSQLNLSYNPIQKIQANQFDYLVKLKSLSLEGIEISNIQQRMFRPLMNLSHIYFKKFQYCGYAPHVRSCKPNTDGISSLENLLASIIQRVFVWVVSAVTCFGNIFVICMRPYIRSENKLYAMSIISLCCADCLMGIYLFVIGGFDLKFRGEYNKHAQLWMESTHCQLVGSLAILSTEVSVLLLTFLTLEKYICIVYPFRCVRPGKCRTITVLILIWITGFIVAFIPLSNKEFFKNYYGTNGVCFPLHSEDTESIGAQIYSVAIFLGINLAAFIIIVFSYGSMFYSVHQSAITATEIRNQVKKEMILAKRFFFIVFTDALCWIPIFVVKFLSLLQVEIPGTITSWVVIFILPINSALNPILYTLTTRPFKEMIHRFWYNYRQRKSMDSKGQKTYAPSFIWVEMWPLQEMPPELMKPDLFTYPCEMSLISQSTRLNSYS

[3] = biological target: T2, Relaxin receptor 1 (Homo sapiens) (UniProt Q9HBX9); assay: Agonist activity at RXFP1 endogenously expressed in human OVCAR-5 cells assessed as increase in IBMX-induced cAMP accumulation pretreated with IBMX for 40 mins followed by compound addition and measured after 30 mins by HTRF assay relative to relaxin; type: functional, cell-based; conditions: filed as agonist
T2 sequence (whole entry): T1 sequence (Q9HBX9 whole entry)

[4] = Aqueous solubility of compound in phosphate buffer at pH 7.4 measured after 24 hrs by UPLC analysis; type: physicochemical
[5] = Stability in rat plasma assessed as parent compound remaining level at 5 uM remaining after 4 hrs; type: ADME, cell-free; conditions: read-out: Stabilty
[6] = Half life in Sprague-Dawley rat at 1 mg/kg, iv measured upto 72 hrs by LC-HRMS analysis; type: ADME, organism-based; conditions: in vivo
[7] = biological target: T1, Relaxin receptor 1; assay: Agonist activity at RXFP1 endogenously expressed in human OVCAR-5 cells assessed as increase in IBMX-induced cAMP accumulation pretreated with IBMX for 40 mins followed by compound addition and measured after 30 mins in presence of 2 % HSA by HTRF assay; type: functional, cell-based
[8] = biological target: T2, Relaxin receptor 1 (Homo sapiens); assay: Agonist activity at RXFP1 endogenously expressed in human OVCAR-5 cells assessed as increase in IBMX-induced cAMP accumulation pretreated with IBMX for 40 mins followed by compound addition and measured after 30 mins in presence of 2 % HSA by HTRF assay relative to control; type: functional, cell-based; conditions: filed as agonist
[9] = biological target: T2, Relaxin receptor 1 (Homo sapiens); assay: Selectivity ratio of EC50 for agonist activity at RXFP1 endogenously expressed in human OVCAR-5 cells in presence of 2 % HSA to EC50 for agonist activity at RXFP1 endogenously expressed in human OVCAR-5 cells in absence of HSA; type: cell-based

## CCCCCCCCCCCCCCCCCCC(=O)[C@H](CCC(N)=O)NC(=O)[C@H](CCC(=O)O)NC(=O)[C@H](CCC(=O)O)NC(=O)[C@H](CCCCN)NC(=O)CCOCCOCCOCCOCCOCCOCCOCCOCCOCCOCCOCCNC(=O)[C@H](CCCCCNC(C)=O)NC(=O)[C@H](CCCCN)NC(=O)[C@@H](C)CNC(=O)[C@@H](C)CNC(=O)[C@@H](NC(=O)[C@H](CCCCCNC(C)=O)NC(=O)[C@H](CCCCN)NC(=O)[C@H](C)NC(=O)[C@H](CCCNC(=N)N)NC(=O)[C@@H](NC(=O)[C@H](CCCCN)NC(=O)[C@H](CCC(=O)O)NC(=O)[C@H](CCCNC(=N)N)NC(=O)[C@H](CCC(=O)O)NC(=O)CNC(=O)[C@H](CCC(=O)O)NC(=O)[C@H](CC(C)C)NC(C)=O)C(C)C)[C@@H](C)CC (Ac-LEGEREKVRAK[hLys](Ac)I[β2hAla(2S)][β2hAla(2S)]K[hLys](Ac)[PEG11]KEE-X3)
[1]
  remaining at 4 h, 5 µM: 93%
[2]
  EC50: 0.6 nM
[3]
  Emax: 95%
[4]
  solubility at 24 h: 5400 µg/mL (≈ 1570 µM)
[5]
  remaining at 4 h, 5 µM: 80%
[6]
  half-life: 43 h
[7]
  EC50: 9 nM
[8]
  Emax: 84%
[9]
  Ratio EC50: 15

## CCCCCCCCCCCCCCCCCCC(=O)[C@H](CCC(=O)O)NC(=O)[C@H](CCC(=O)O)NC(=O)[C@H](CCC(=O)O)NC(=O)[C@H](CCCCN)NC(=O)COCCOCCNC(=O)COCCOCCNC(=O)COCCOCCNC(=O)[C@H](CCCCCNC(C)=O)NC(=O)[C@H](CCCCN)NC(=O)[C@H](CCCCN)NC(=O)[C@H](CCCNC(=N)N)NC(=O)[C@@H](C)CNC(=O)[C@H](CO)NC(=O)[C@H](Cc1c[nH]c2ccccc12)NC(=O)[C@@H](NC(=O)[C@H](CO)NC(=O)[C@H](CCCCCNC(C)=O)NC(=O)[C@H](CCCCN)NC(=O)[C@H](CCCC)NC(=O)[C@H](CCSC)NC(=O)CNC(=O)[C@H](CCC(=O)O)NC(=O)[C@@H](C)CNC(=O)[C@@H](C)CNC(=O)[C@@H](NC(=O)[C@H](CCCCCNC(C)=O)NC(=O)[C@H](CCCCN)NC(=O)[C@H](C)NC(=O)[C@H](CCCNC(=N)N)NC(=O)[C@@H](NC(=O)[C@H](CCCCN)NC(=O)[C@H](CCC(=O)O)NC(=O)[C@H](CCCNC(=N)N)NC(=O)[C@H](CCC(=O)O)NC(=O)CNC(=O)[C@H](CCC(=O)O)NC(=O)[C@H](CC(C)C)NC(C)=O)C(C)C)[C@@H](C)CC)[C@@H](C)O (Ac-LEGEREKVRAK[hLys](Ac)I[β2hAla(2S)][β2hAla(2S)]EGM[Nle]K[hLys](Ac)STWS[β2hAla(2S)]RKK[hLys](Ac)[AEEA][AEEA][AEEA]KEE-X6)
[2]
  EC50: 0.1 nM
[3]
  Emax: 88%
[6]
  half-life: 3.4 h
[7]
  EC50: 19.8 nM
[8]
  Emax: 82%
[9]
  Ratio EC50: 198
